Assay results taken from ChEMBL document CHEMBL1135404, “Identification of a nonsteroidal liver X receptor agonist through parallel array synthesis of tertiary amines” (J Med Chem, 2002).
The source made the active and inactive calls. The calls are words filed in the database; no cut-off is given here.

What was measured:
[1] = molecular target: T1, Oxysterols receptor LXR-alpha (Homo sapiens) (UniProt Q13133)
T1 sequence (whole entry): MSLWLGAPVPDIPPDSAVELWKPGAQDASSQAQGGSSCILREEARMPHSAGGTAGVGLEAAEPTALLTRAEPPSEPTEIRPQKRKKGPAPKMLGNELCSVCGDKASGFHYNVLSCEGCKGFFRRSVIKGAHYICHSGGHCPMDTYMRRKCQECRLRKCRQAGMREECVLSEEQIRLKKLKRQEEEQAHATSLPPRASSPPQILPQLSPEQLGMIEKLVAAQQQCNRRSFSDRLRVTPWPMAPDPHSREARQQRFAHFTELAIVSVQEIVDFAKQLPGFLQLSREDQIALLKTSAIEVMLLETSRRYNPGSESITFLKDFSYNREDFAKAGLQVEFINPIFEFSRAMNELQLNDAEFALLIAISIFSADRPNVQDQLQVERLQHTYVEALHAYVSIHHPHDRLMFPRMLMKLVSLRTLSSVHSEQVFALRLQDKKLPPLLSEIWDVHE
Description: Relative efficacy compared to 24(S),25-epoxy cholesterol in Liver X receptor-alpha ligand-sensing assay

[2] = molecular target: T1, Oxysterols receptor LXR-alpha (Homo sapiens); remark: listed apart in the source
Description: Relative efficacy compared to 24(S),25-epoxy cholesterol in LXR alpha-Gal4 receptor gene assay

[3] = molecular target: T2, Oxysterols receptor LXR-alpha (Homo sapiens, UniProt Q13133); assay: Effective concentration in LXR alpha-Gal4 receptor gene assay
T2 sequence (Q13133 whole entry): T1 sequence (whole entry)

[4] = molecular target: T2, Oxysterols receptor LXR-alpha; assay: Ligand-dependent recruitment of steroid receptor co-activator 1 (SRC1) to Liver X receptor-alpha
[5] = Oral bioavailability after administration of a dose of 10 mg/kg; assay type: ADME, organism-based; settings: in vivo
[6] = Cmax in mice after 10 mg/kg oral dose; assay type: ADME, organism-based; design: dose 10 mg/kg, route oral; settings: mouse, in vivo
[7] = the half-life (t1/2) in mice after a dose of 10 mg/kg; assay type: ADME, organism-based; design: dose 10 mg/kg; settings: mouse, in vivo
[8] = molecular target: T1, Oxysterols receptor LXR-alpha (Homo sapiens); assay: Effective concentration in LXR alpha-Gal4 receptor gene assay; inactive at 10 uM

SMILES	RE [1]	RE [2]	EC50 [3]	EC50 [4]	IA [8]	bioavailability [5]	Cmax [6]	half-life [7]
COc1ccc(CN(CCCOc2cccc(CC(=O)O)c2)CC(c2ccccc2)c2ccccc2)cc1	0.8	0.9	8000 nM	860 nM				
O=S(=O)(c1ccccc1)N(CC(F)(F)F)c1ccc(C(O)(C(F)(F)F)C(F)(F)F)cc1	1	2.5						
O=C(O)Cc1cccc(OCCCN(Cc2cccc(C(F)(F)F)c2Cl)CC(c2ccccc2)c2ccccc2)c1	1	1.7	190 nM	125 nM		70%	12700 ng/mL	2 h
COc1ccc(CN(CCCOc2cccc(CC(N)=O)c2)CC(c2ccccc2)c2ccccc2)c(OC)c1	0.7	0.6	4000 nM	660 nM				
C[C@H](CC[C@@H]1OC1(C)C)[C@H]1CC[C@H]2[C@@H]3CC=C4C[C@@H](O)CC[C@]4(C)[C@H]3CC[C@]12C [24(S),25-EPOXYCHOLESTEROL]	1	1	3000 nM	95 nM				
NC(=O)Cc1cccc(OCCCN(Cc2cccc(C(F)(F)F)c2Cl)CC(c2ccccc2)c2ccccc2)c1	1.1	1.5	425 nM	45 nM				
COc1ccc(CN(CCCOc2cccc(C(N)=O)c2)CC(c2ccccc2)c2ccccc2)cc1OC	0.2			260 nM				
NC(=O)Cc1cccc(OCCCN(Cc2cccc(C(F)(F)F)c2)CC(c2ccccc2)c2ccccc2)c1	0.7	0.3	650 nM	85 nM				

Now from value to compound, other results behind:

RE [1]	RE [2]	EC50 [3]	EC50 [4]	IA [8]	SMILES	bioavailability [5]	Cmax [6]	half-life [7]
0.7	0.5	910 nM	250 nM		COc1ccc(CN(CCCOc2cccc(CC(N)=O)c2)CC(c2ccccc2)c2ccccc2)cc1F			
0.9	0.4	700 nM	190 nM		COc1ccc(CN(CCCOc2cccc(CC(N)=O)c2)CC(c2ccccc2)c2ccccc2)c(F)c1			
0.8			260 nM	inactive	COc1ccc(CN(CCCOc2cccc(CC(N)=O)c2)CC(c2ccccc2)c2ccccc2)cc1			
0.9	0.4	945 nM	85 nM		NC(=O)Cc1cccc(OCCCN(Cc2ccc(F)c(C(F)(F)F)c2)CC(c2ccccc2)c2ccccc2)c1			
